Laboratory results as given in US20070105721A1, “Vinylogous 4-Hpyrones and their use in promoting plant growth” (priority 2003, published 2007).

Assays:
Type in all cases: in vivo
[1] = tested on: Conostylis aculeata seeds; experiment: Native bioassay
Procedure: (§1) Conostylis aculeata and Stylidium affine seeds were obtained from Nindethana seed service and stored before use. For testing of aqueous samples, three replicates of 20-30 sterilised seeds were added to UV sterilised petri dishes (90 mm), containing two Whatman No. 1 filter papers (7 cm) moistened with the filtered test solution (2.5 mL, 0.22 μm). MP water was used as a control for each experiment and dilutions of each sample were used to ensure the optimum concentration range for activity. Petri dishes were then sealed with parafilm and incubated in the dark at 20±1° C. The seeds were scored on a weekly basis with optimum germination achieved between 4-6 weeks.

Stylidium affine seeds = experiment: Native bioassay
Procedure: as §1

Lawrencella davenportii = experiment: Germination on moist filter paper in petri dishes; conditions: SW 1/10 dilution, compound 1a 10 ppb
[2] = tested on: Emmenanthe penduliflora seeds; experiment: Duration of priming required to induce a germination response; conditions: priming in 100 ppb compound 1a, re-drying then incubation; FIG. 5
Procedure: To determine the duration of priming required to induce a germination response, three replicates of 20 seeds of Emmenanthe penduliflora were soaked in at 23° C. in a 100 ppb compound 1a solution for 1, 5, 10, 20, 40 or 80 min or 3, 6, 12, 24 or 48 hr. The seeds were re-dried for 24 hr at 23° C. and placed on Petri dishes lined with seed germination paper and moistened with de-ionised water. The Petri dishes were incubated at 18° C. in constant darkness. Germination (radicle emergence) was recorded every 2-3 days until germination had ceased.

Syncarpha vestita = experiment: Germination enhancement of species used in amenity horticulture; conditions: compound 1a at 100 ppb; constant darkness at 18° C. Note: tested at 0.1 ppm.
Procedure: (§2) For each species, three replicates of 25 seeds were placed on Petri dishes lined with seed germination paper. The Petri dishes were moistened with de-ionised water (control) or 100 ppb compound 1a. All species were incubated in constant darkness at 18° C. Germination (radicle emergence) was recorded five times a week.

Passerina vulgaris = experiment: as above; conditions: compound 1a at 100 ppb; constant darkness at 18° C. Note: tested at 0.1 ppm.
Procedure: as §2

Emmenanthe penduliflora [3] = experiment: as above; conditions: compound 1a at 100 ppb; constant darkness at 18° C.
Procedure: as §2

Rhodocoma arida = experiment: as above; conditions: compound 1a at 100 ppb; constant darkness at 18° C. Note: tested at 0.1 ppm.
Procedure: as §2

Conostylis aculeata = experiment: as above; conditions: compound 1a at 100 ppb; constant darkness at 18° C.; mean ± standard error
Procedure: as §2

Stylidium affine = experiment: as above; conditions: compound 1a at 100 ppb; constant darkness at 18° C.
Procedure: as §2

Emmenanthe penduliflora [4] = experiment: Germination on moist filter paper in petri dishes; conditions: SW 1/10 dilution, compound 1a 10 ppb
Nicotiana attenuate = experiment: Germination on moist filter paper in petri dishes; conditions: SW 1/10 dilution, compound 1a tested at 100 ppb
Centrolepis aristate = experiment: Seed priming; conditions: 24 hr priming in 100 ppb compound 1a, re-drying and sowing; note: tested at 0.1 ppm
Procedure: (§3) For testing on Australian species, three replicates of 25 seeds were soaked in one of de-ionised DI water or 100 ppb compound 1a for 24 hr at 23° C. The seeds were re-dried at 23° C. for 24 hr and incubated on Petri dishes containing 0.7% (w/v) water agar in constant darkness at 18° C. Germination (radicle emergence) was recorded every 2-3 days until germination had ceased.

Cherianthera preissiana = experiment: Seed priming; conditions: 24 hr priming in 100 ppb compound 1a, re-drying and sowing; note: tested at 0.1 ppm
Procedure: as §3

Melaleuca carrii seeds = experiment: Seed vigour enhancement (cumulative germination); conditions: compound 1a at 100 ppb; FIG. 3
Procedure: (§4) For each species, five replicates of 20 seeds were placed on Petri dishes lined with seed germination paper. The Petri dishes were moistened with de-ionised water (control) or 100 ppb compound 1a. All species were incubated in constant darkness at 12/12 hr alternating temperatures of 7/18° C., 13/26° C. or 18/33° C. Germination was scored on radicle emergence and was recorded every 2-3 days until germination had ceased.

Hakea undulata seeds = experiment: Seed vigour enhancement (cumulative germination); conditions: compound 1a at 100 ppb; FIG. 4
Procedure: as §4

[5] = tested on: Gompholobium tomentosum seeds; experiment: Seed vigour enhancement (cumulative germination); conditions: compound 1a at 100 ppb; FIG. 3
Procedure: as §4

[6] = tested on: Petroselinium crispum (parsley) seeds; experiment: Seed vigour enhancement; conditions: 100 ppb compound 1a; note: tested at 0.1 ppm
Procedure: as §4

[7] = tested on: Allium ampeloprasum (leek) seeds; experiment: Seed vigour enhancement; conditions: 100 ppb compound 1a; note: tested at 0.1 ppm
Procedure: as §4

Echinacea angustifolia = experiment: Stimulation of germination in nutriceutically important plants
Procedure: as §2, with “Three” for “For each species, three”, “(control), 10” for “(control)”, “Seeds” for “All species”, “every 2-3 days until germination had ceased.” for “five times a week.”

Microlaena stipoides = experiment: Germination enhancement of species used in rangeland pasture systems; conditions: 100 ppb compound 1a; constant darkness at 18° C.; mean ± standard error
Procedure: as §2, with “Three” for “For each species, three”, “every 2-3 days until germination had ceased.” for “five times a week.”

[8] = 1/10 (of neat SW; of compound 1a 1 mg/L)
[9] = 1/100 (of neat SW; of compound 1a 1 mg/L)
[10] = Neat (neat SW; compound 1a 1 mg/L), mean (SEM)
[11] = compounds isolated from smoke, mean (SEM)
[12] = 26/13 ° C. 12/12 hr alternating
[13] = 33/18 ° C. 12/12 hr alternating

Cc1c2ccocc-2oc1=O [Compound 1a, 3-Methyl-2H-furo[2,3-c]pyran-2-one]
Conostylis aculeate germination ([1]; 1/10 000 of compound 1a 1 mg/L): 29.4 (3.4) %
Conostylis aculeate germination [1, 8]: 48.2 (4.0) %
Conostylis aculeate germination [1, 9]: 50.6 (6.5) %
Conostylis aculeate germination ([1]; 1/1000 of compound 1a 1 mg/L): 43.0 (4.5) %
Conostylis aculeate germination [1, 10]: 46.3 (3.1) %
Germination, Conostylis aculeata [1, 11]: 46.5 (4.9) %
Stylidium affine germination (Stylidium affine seeds; 1/10 000 of compound 1a 1 mg/L): 39.9 (10.9) %
Stylidium affine germination (Stylidium affine seeds; [8]): 83.4 (3.7) %
Stylidium affine germination (Stylidium affine seeds; [9]): 71.8 (1.7) %
Stylidium affine germination (Stylidium affine seeds; 1/1000 of compound 1a 1 mg/L): 70.9 (3.1) %
Stylidium affine germination (Stylidium affine seeds; [10]): 79.0 (3.1) %
Germination, Stylidium affine (Stylidium affine seeds; [11]): 67.9 (2.5) %
Germination, Lawrencella davenportii (Lawrencella davenportii): 56.3 (±8.5) b %
duration of priming sufficient to induce germination promotion [2]: 1 min
Germination, Syncarpha vestita (Syncarpha vestita): 77.5 ± 6.3 b
Germination, Passerina vulgaris (Passerina vulgaris): 10.0 ± 4.1 b
Germination, Emmenanthe penduliflora (Emmenanthe penduliflora [3]): 82.0 ± 4.2 b
Germination, Rhodocoma arida (Rhodocoma arida): 53.3 ± 3.1 b
Germination, Conostylis aculeata (Conostylis aculeata): 48.2 ± 3.9 b
Germination, Stylidium affine (Stylidium affine): 83.4 ± 3.7 b
Germination, Emmenanthe penduliflora (Emmenanthe penduliflora [4]): 82.0 (±4.2) b %
Germination, Nicotiana attenuate (Nicotiana attenuate): **44.4 (±1.9) b %
Germination (%), Centrolepis aristate (Centrolepis aristate): 88.0 ± 0.0 b %
Germination (%), Cherianthera preissiana (Cherianthera preissiana): 46.7 ± 4.8 b %
germination rate (cumulative germination), Melaleuca carrii (Melaleuca carrii seeds): improved germination rate
germination rate (cumulative germination), Hakea undulata (Hakea undulata seeds): improved germination rate
germination rate (cumulative germination), Gompholobium tomentosum [5]: improved germination rate
Germination (%), Parsley ([6]; 18/7 ° C. 12/12 hr alternating): 27.0 ± 1.9 a %
Germination (%), Parsley [6, 12]: 70 ± 5.6 b %
Germination (%), Parsley [6, 13]: 29.0 ± 6.8 b %
Germination (%), Leek ([7]; 18/7 ° C. 12/12 hr alternating, mean ± standard error): 97.1 ± 0.9 a %
Germination (%), Leek [7, 12]: 92.0 ± 4.3 a %
Germination (%), Leek [7, 13]: 72.0 ± 6.3 b %
germination of Echinacea angustifolia (Echinacea angustifolia; 10 ppb compound 1a, mean ± standard error): 58.0 ± 5.5 b
germination of Echinacea angustifolia (Echinacea angustifolia; 100 ppb compound 1a): 74.0 ± 4.0 b
Germination, Microlaena stipoides (Microlaena stipoides): 78.3 ± 6.7 b
